Tests used:
[1] = system: haloperidol-induced stiffness; experiment: Haloperidol-induced Parkinson's disease stiffness model in CD-1 mice (rearing and bar tests); assay type: in vivo
Description: Parkinson's disease (PD) is a common class of degenerative disease of the nervous system with the main pathological changes including the loss of substantia nigra dopaminergic neurons and the decrease of dopamine transmitter content, leading to tremor at rest, muscle stiffness, […], postural reflex disorders and other clinical symptoms. Haloperidol, a dopamine D2 receptor blocker, can block the dopamine D2 receptor in the striatum, leading to mouse dystonic postures, namely, stiffness and hypokinesia. This model is a recognized animal model of Parkinson's syndrome. The ameliorative effect of a test substance on the stiffness symptom of Parkinson's disease induced by haloperidol in CD-1 mice was evaluated. 57 SPF-grade male CD-1 mice (4 weeks old at the time of purchase and 8 weeks old at the time of experiment) with the weight of about 40 g were randomly divided into 5 groups, namely, a vehicle group (n=11), a group of 1 mg/kg benzene sulfonate of Compound 40 (n=11), a group of 3 mg/kg benzene sulfonate of Compound 40 (n=12), a group of 10 mg/kg benzene sulfonate of Compound 40 (n=12), and a group of 30 mg/kg benzene sulfonate of Compound 40 (n=11). 1 mg/kg haloperidol was injected subcutaneously at an injection volume of 10 ml/kg. 30 minutes after the injection, Compound 40 at each dose was intragastrically infused at a volume of 10 ml/kg. At the 1st hour and the 4th hour after the administration was completed, the rearing and bar tests were performed respectively, and the number of standings and on-bar time of the mice were counted to evaluate the ameliorative effect of Compound 40 on the stiffness symptom of haloperidol-induced Parkinson's disease in CD-1 mice. […] Firstly, the acetate of Compound 22 at each dose was intragastrically infused at a volume of 10 ml/kg. After 30 min, 1 mg/kg haloperidol was injected subcutaneously at an injection volume of 10 ml/kg. At the 1st hour and the 4th hour after the administration was completed, the rearing and bar tests were performed respectively, and the number of standings and on-bar time of the mice were counted to evaluate the ameliorative effect of the acetates of Compound 22 on the stiffness symptom of haloperidol-induced Parkinson's disease in CD-1 mice. […] Firstly, Compound 27 at each dose was intragastrically infused at a volume of 10 ml/kg. After 30 min, 1 mg/kg haloperidol was injected subcutaneously at an injection volume of 10 ml/kg. At the 1st hour and the 4th hour after the administration was completed, the rearing and bar tests were performed respectively, and the number of standings and on-bar time of the mice were counted to evaluate the ameliorative effect of Compound 27 on the stiffness symptom of haloperidol-induced Parkinson's disease in CD-1 mice. The mice were subcutaneously injected with haloperidol at abdomen at a dose of 1 mg/kg, with the concentration of a working solution of 0.1 mg/ml and an injection volume of 10 ml/kg. At the 1st hour and the 4th hour after drug intervention, the mice were put into a white transparent plastic bucket with a diameter of 20 cm and a height of 21 cm. The mice were allowed to acclimate in the bucket for 5 min before starting video recording. The spontaneous activity behaviors of the mice within 10 minutes were recorded, whereby the number of standings was counted. The more the standings, the more frequent the spontaneous exploration activities of the mice, and the lower the degree of stiffness. At the time points of 1st and 4th hours after the rearing test was completed, bar test was carried out. The mice were placed on a long wooden bar with a diameter of […] and a height of 6 cm. The mice were let to hold the wooden bar with forelimbs, only with the buttocks or hind limbs on the ground. The timing was stopped when the hind limbs left the bench top or the fore limbs left the wooden bar, and the on-bar time of the mice was recorded. Each mouse was tested 3 times, and the maximum on-bar time and the average on-bar time were counted. […]

[2] = target: T1, adenosine receptor A3 (Homo sapiens, UniProt P0DMS8); experiment: cAMP experiment on Gi-coupled adenosine receptor A3 (CHO); assay type: cell-based; conditions: cAMP accumulation; read-out: IC50 (nM) CHO cells (ADORA3)
T1 construct: host or cells: CHO
T1 sequence (P0DMS8 1-318): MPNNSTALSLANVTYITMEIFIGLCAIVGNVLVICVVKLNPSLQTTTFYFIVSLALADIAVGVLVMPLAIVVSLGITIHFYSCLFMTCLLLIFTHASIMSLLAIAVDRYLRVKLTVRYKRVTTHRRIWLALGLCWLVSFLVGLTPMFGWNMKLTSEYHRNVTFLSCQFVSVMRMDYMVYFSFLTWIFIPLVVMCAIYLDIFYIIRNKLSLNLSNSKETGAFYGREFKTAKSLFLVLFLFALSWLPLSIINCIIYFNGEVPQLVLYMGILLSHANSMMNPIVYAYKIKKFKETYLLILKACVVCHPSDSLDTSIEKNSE
Protocol: Similarly, a CHO cell strain stably expressing the adenosine receptor A3 was taken as a study object (PerkinElmer, ES-012-C) for the experiment. The IC50 value of the compound was calculated.

[3] = Pharmacokinetics of Compounds 27, 40, 22 and 41 in ICR mice in different modes of administration; assay type: in vivo; conditions: for Drug accumulation after consecutive oral administration: 30 mg/kg oral; for AUC(0-t) / Cmax / half-life: ICR; for AUC(0-t) / Cmax / half-life / clearance: mouse, in vivo; for clearance: IV, read-out: Cl—pred (converted)
Description: WinNonlin® 6.4 was used as the calculation software for PK parameters.

[4] = Experiment III, 3 mg/kg intragastric, 1 h
[5] = Experiment III, 3 mg/kg intragastric, 4 h
[6] = Experiment III, 10 mg/kg intragastric, 1 h
[7] = Experiment III, 10 mg/kg intragastric, 4 h
[8] = Experiment III, 30 mg/kg intragastric, 1 h
[9] = Experiment III, 30 mg/kg intragastric, 4 h
[10] = po, 30 mg/kg, PO (after 7 consecutive days of administration), 30 mg/kg
[11] = PO (after 7 consecutive days of administration), 30 mg/kg
[12] = Experiment II, 3 mg/kg intragastric, 1 h
[13] = Experiment II, 3 mg/kg intragastric, 4 h
[14] = Experiment II, 10 mg/kg intragastric, 1 h
[15] = Experiment II, 10 mg/kg intragastric, 4 h
[16] = Experiment II, 30 mg/kg intragastric, 1 h
[17] = Experiment II, 30 mg/kg intragastric, 4 h

| Compound | Average on-bar time [1, 6] [s] | IC50 [2] [nM] | Drug accumulation after consecutive oral administration [3] | AUC(0-t) ([3]; iv, 1 mg/kg) [ng·h/mL] | Cmax ([3]; iv, 1 mg/kg) [ng/mL] | half-life ([3]; iv, 1 mg/kg) [h] | AUC(0-t) ([3]; po, 5 mg/kg) [ng·h/mL] | Cmax ([3]; po, 5 mg/kg) [ng/mL] | half-life ([3]; po, 5 mg/kg) [h] | AUC(0-t) [3, 10] [ng·h/mL] | Cmax [3, 10] [ng/mL] | half-life [3, 10] [h] | AUC(0-t) ([3]; po, 30 mg/kg, PO (single)) [ng·h/mL] | Cmax ([3]; po, 30 mg/kg, PO (single)) [ng/mL] | half-life ([3]; po, 30 mg/kg, PO (single)) [h] | Cl—F—pred [3, 11] [mL/min/kg] | Cl—F—pred ([3]; PO (single), 30 mg/kg) [mL/min/kg] | Cl—F—pred ([3]; PO, 5 mg/kg) [mL/min/kg] | F ([3]; PO, 5 mg/kg) [%] | clearance ([3]; 1 mg/kg) [mL/min/kg] | further results |
| --- | --- | --- | --- | --- | --- | --- | --- | --- | --- | --- | --- | --- | --- | --- | --- | --- | --- | --- | --- | --- | --- |
| COCCNc1ccc(CCNc2nc(N)n3nc(-c4ccco4)nc3n2)cc1 [Compound 27, 2-(furan-2-yl)-N5-(4-((2-methoxyethyl)amino)phenethyl)-[1,2,4]triazolo[1,5-a][1,3,5]triazine-5,7-diamine] | 34.83 ± 8.63 | 458 | significant drug accumulation is not observed | 495 | 993 | 0.67 | 3100 | 1550 | 1.19 | 41700 | 17300 | 1.86 | 33600 | 14500 | 1.12 | 12 | 15.3 | 27.5 | 125.29 | 33.8 | Average on-bar time [1, 4]: 56.83 ± 11.67 s; Maximum on-bar time [1, 4]: 88.00 ± 22.07 s; Average on-bar time [1, 5]: 75.11 ± 19.52 s; Maximum on-bar time [1, 5]: 109.33 ± 28.68 s; Maximum on-bar time [1, 6]: 61.38 ± 15.59 s; Average on-bar time [1, 7]: 39.13 ± 14.33 s; Maximum on-bar time [1, 7]: 55.13 ± 18.32 s; Average on-bar time [1, 8]: 22.04 ± 4.19 s; Maximum on-bar time [1, 8]: 35.00 ± 8.59 s; Average on-bar time [1, 9]: 23.00 ± 4.46 s; Maximum on-bar time [1, 9]: 31.88 ± 5.75 s |
| Nc1nc(NCCc2ccc(NC3COC3)cc2)nc2nc(-c3ccco3)nn12 [Compound 22, 2-(furan-2-yl)-N5-(4-(oxetan-3-ylamino)phenethyl)-[1,2,4]triazolo[1,5-a][1,3,5]triazine-5,7-diamine] | – | 585 | significant drug accumulation is not observed | 925 | 1690 | 0.94 | 3960 | 3510 | 2.74 | 15400 | 4800 | 3.04 | 18000 | 9650 | 2.22 | 32.5 | 27.8 | 21 | 85.72 | 18.2 | – |
| Cn1nnc(-c2ccc(CCNc3nc(N)n4nc(-c5ccco5)nc4n3)cc2)n1 [Compound 40, N5-(4-(2-methyl-2H-tetrazol-5-yl)phenethyl)-2-(furan-2-yl)-[1,2,4]triazolo[1,5-a][1,3,5]triazine-5,7-diamine] | – | 928 | significant drug accumulation is not observed | 1540 | 1880 | 2.49 | 5540 | 2130 | 2.36 | 10600 | 2330 | 2.79 | 24400 | 14400 | 1.65 | 47 | 20.5 | 15 | 71.99 | 10.8 | – |
| CC(=O)O.Nc1nc(NCCc2ccc(NC3COC3)cc2)nc2nc(-c3ccco3)nn12 [Acetate of Compound 22, 2-(furan-2-yl)-N5-(4-(oxetane-3-ylamino)phenethyl)-[1,2,4]triazolo[1,5-a][1,3,5]triazine-5,7-diamine acetate] | – | – | – | – | – | – | – | – | – | – | – | – | – | – | – | – | – | – | – | – | Average on-bar time [1, 12]: 109.38 ± 13.74 s; Maximum on-bar time [1, 12]: 157.50 ± 18.11 s; Average on-bar time [1, 13]: 109.33 ± 26.37 s; Maximum on-bar time [1, 13]: 172.25 ± 58.28 s; Average on-bar time [1, 14]: 41.88 ± 10.56 s; Maximum on-bar time [1, 14]: 77.13 ± 25.78 s; Average on-bar time [1, 15]: 33.17 ± 6.69 s; Maximum on-bar time [1, 15]: 50.50 ± 12.24 s; Average on-bar time [1, 16]: 26.17 ± 3.88 s; Maximum on-bar time [1, 16]: 42.25 ± 8.18 s; Average on-bar time [1, 17]: 24.13 ± 4.28 s; Maximum on-bar time [1, 17]: 32.88 ± 6.21 s |
| CCn1c(=O)c2c(nc(/C=C/c3ccc(OC)c(OC)c3)n2C)n(CC)c1=O [Istradefylline, reference compound] | 23.71 ± 6.50 | 2080 | – | – | – | – | – | – | – | – | – | – | – | – | – | – | – | – | – | – | Average on-bar time [1, 14]: 23.04 ± 4.88 s; Maximum on-bar time [1, 14]: 30.38 ± 5.84 s; Average on-bar time [1, 15]: 24.67 ± 5.21 s; Maximum on-bar time [1, 15]: 35.75 ± 8.73 s; Maximum on-bar time [1, 6]: 40.75 ± 13.17 s; Average on-bar time [1, 7]: 34.08 ± 6.69 s; Maximum on-bar time [1, 7]: 54.75 ± 15.58 s |
